Data set [1] concerns triglycerides, LDL cholesterol, and total cholesterol, biomarkers of OCT1 activity. The data set can be described thus: UCSF EHR analysis: lipid levels in patients with HIV, on vs off drug. It is filed as in vivo, human.
Data set [2] relates to uric acid, a biomarker of BCRP activity. The data set can be described thus: UCSF EHR analysis: serum/plasma uric acid, on vs off drug. It is filed as in vivo, human.

Consider two molecules from paper PMC8217266 (Clinical Pharmacology and Therapeutics, 2021).

Take `CC(C)CN(C[C@@H](O)[C@H](Cc1ccccc1)NC(=O)O[C@H]1CO[C@H]2OCC[C@H]21)S(=O)(=O)c1ccc(N)cc1` [Darunavir]: the “LDL cholesterol, Median On drug” value in data set [1] (matched 1:2, off drug 95) was 100/95 mg/dL. The “Total cholesterol, Median On drug” value in data set [1] (matched 1:2, off drug 166) is listed as 180/166 mg/dL. Moreover, in data set [1] (matched 1:2, on n=357, off n=714, off drug 98.7, P 0.0077), the “LDL cholesterol, Average On drug” value is recorded as 105/98.7 mg/dL. Also, the “Total cholesterol, Average On drug” value in data set [1] (matched 1:2, on n=364, off n=728, off drug 170, P 5.18E-06) is given as 183/170 mg/dL. In addition, the “Triglyceride, Average On drug” value in data set [1] (matched 1:2, on n=386, off n=772, off drug 160, P 0.00022) is reported as 180/160 mg/dL.

As to `CCCc1nn(C)c2c(=O)[nH]c(-c3cc(S(=O)(=O)N4CCN(C)CC4)ccc3OCC)nc12` [Sildenafil], the “Median SUA On drug” value in data set [2] (criteria 1, off drug 5.7) is on record as 6.7/5.7 mg/dL; in data set [2] (criteria 2, off drug 5.6) it was 6.9/5.6 mg/dL; in data set [2] (main analysis, matched 1:5, off drug 5.7, P <2.2E-16), 6.6/5.7 mg/dL.
